Data from ChEMBL document CHEMBL2321709, “Acetylcholinesterase immobilized capillary reactors-tandem mass spectrometry: an on-flow tool for ligand screening” (J Med Chem, 2013).

Legend:
[1] = molecular target: Acetylcholinesterase (Electrophorus electricus) (UniProt O42275); assay: Inhibition of Electrophorus electricus AChE using acetylcholine as substrate by chromatography relative to control; settings: concentration not given here
Acetylcholinesterase = Acetylcholinesterase (Electrophorus electricus, UniProt O42275); assay: Competitive inhibition of Electrophorus electricus AChE using acetylcholine as substrate by Lineweaver-Burk plot method
Sequence of Acetylcholinesterase (O42275 whole entry): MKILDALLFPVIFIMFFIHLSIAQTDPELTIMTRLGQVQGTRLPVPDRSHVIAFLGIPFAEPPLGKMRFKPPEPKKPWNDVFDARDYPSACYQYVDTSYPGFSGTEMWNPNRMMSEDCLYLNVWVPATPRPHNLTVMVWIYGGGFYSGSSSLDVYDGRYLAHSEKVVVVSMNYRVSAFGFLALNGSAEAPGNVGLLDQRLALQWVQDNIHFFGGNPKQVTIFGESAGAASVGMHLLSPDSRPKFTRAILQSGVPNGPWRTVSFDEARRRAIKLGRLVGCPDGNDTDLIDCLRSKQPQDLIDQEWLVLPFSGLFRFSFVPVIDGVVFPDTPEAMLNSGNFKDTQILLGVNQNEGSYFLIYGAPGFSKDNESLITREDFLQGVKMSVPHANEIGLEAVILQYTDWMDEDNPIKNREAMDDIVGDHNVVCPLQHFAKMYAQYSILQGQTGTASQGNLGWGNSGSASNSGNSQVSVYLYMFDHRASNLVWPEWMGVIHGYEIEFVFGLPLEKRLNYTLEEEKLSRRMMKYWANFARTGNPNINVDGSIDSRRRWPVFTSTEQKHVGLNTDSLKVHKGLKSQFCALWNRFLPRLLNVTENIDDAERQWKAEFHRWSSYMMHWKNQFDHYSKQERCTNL

Sequence of Acetylcholinesterase (Electrophorus electricus) (O42275 24-633 limits assumed): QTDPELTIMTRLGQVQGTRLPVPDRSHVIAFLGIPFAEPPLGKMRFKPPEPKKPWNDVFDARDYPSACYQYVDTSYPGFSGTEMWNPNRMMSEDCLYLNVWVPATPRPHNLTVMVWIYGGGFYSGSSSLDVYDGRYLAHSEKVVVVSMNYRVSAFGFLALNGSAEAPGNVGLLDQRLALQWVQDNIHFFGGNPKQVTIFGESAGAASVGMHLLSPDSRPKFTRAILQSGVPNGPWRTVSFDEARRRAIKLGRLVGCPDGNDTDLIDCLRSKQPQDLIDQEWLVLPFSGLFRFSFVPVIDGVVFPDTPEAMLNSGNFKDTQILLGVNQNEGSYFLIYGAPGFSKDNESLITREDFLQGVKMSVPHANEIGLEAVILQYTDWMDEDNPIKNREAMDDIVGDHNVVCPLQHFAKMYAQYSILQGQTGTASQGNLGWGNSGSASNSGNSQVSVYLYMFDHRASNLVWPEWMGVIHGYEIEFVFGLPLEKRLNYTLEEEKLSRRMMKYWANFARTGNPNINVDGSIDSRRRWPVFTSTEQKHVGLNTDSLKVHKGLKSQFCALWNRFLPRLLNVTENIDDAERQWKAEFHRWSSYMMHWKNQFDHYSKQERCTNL

CCOC(=O)c1cc2ccc(OCCN3CCCCC3)cc2oc1=O
inhibition [1]: > 80%
IC50 (Acetylcholinesterase): 0.356 µM
Ki (Acetylcholinesterase): 0.031 µM

O=C(NCCN1CCCCC1)c1cc2ccccc2oc1=O
inhibition [1]: > 80%
IC50 (Acetylcholinesterase): 12.6 µM
Ki (Acetylcholinesterase): 13.8 µM
